Measurements reported in ChEMBL document CHEMBL1135186, “Novel diphenylalkyl piperazine derivatives with dual calcium antagonistic and antioxidative activities” (Bioorg Med Chem Lett, 2002).

Key:
[1] = species: Canis familiaris; test: Concentration of the test compound required to inhibit the auto oxidative lipid peroxidations in canine brain homogenates by 50% was determined; format: functional; conditions: Canis lupus familiaris
[2] = species: Rattus norvegicus; test: PD2 value was calculated as -log value of the concentration of the test compound to inhibit 60 mM KCl-induced contractions to 50% expressed as calcium antagonistic activity; format: functional
[3] = species: Canis familiaris; test: Inhibitory activity against KCl induced contractile response in isolated canine mesenteric artery was determined expressed as vasodilation effect; format: functional, Canis lupus familiaris
[4] = species: Canis familiaris; test: Inhibitory activity against KCl induced contractile response in isolated canine basilar artery was determined expressed as vasodilation effect; format: functional, Canis lupus familiaris
[5] = species: Canis familiaris; test: Inhibitory activity against KCl induced contractile response in isolated canine renal artery was determined expressed as vasodilation effect; format: functional, Canis lupus familiaris
[6] = species: Canis familiaris; test: Inhibitory activity against KCl induced contractile response in isolated canine coronary artery was determined expressed as vasodilation effect; format: functional, Canis lupus familiaris

| IC50 [1] [µM] | Structure (SMILES) | PD2 [2] | PD2 [3] | PD2 [4] | PD2 [5] | PD2 [6] |
| --- | --- | --- | --- | --- | --- | --- |
| 28 | OC(CSCc1ccccc1)CN1CCN(CCCC(c2ccc(F)cc2)c2ccc(F)cc2)CC1 (centres undefined) | 6.93 | – | – | – | – |
| 19 | CN(CC(O)CN1CCN(CCCC(c2ccc(F)cc2)c2ccc(F)cc2)CC1)c1ccccc1 (centres undefined) | 5.83 | – | – | – | – |
| 15 | COC(CNc1ccccc1)CN1CCN(CCCC(c2ccc(F)cc2)c2ccc(F)cc2)CC1 (centres undefined) | – | – | – | – | – |
| 15 | OC(CSc1ccccc1)CN1CCN(CCCC(c2ccc(F)cc2)c2ccc(F)cc2)CC1 (centres undefined) | 6.79 | 5.8 | 7 | 5.73 | 6.38 |
| 390 | CC(=O)N(CC(O)CN1CCN(CCCC(c2ccc(F)cc2)c2ccc(F)cc2)CC1)c1ccccc1 (centres undefined) | 5.98 | – | – | – | – |
| 6.9 | OC(CNCc1ccccc1)CN1CCN(CCCC(c2ccc(F)cc2)c2ccc(F)cc2)CC1 (centres undefined) | 5.85 | – | – | – | – |

The next lines start with the compound.

| Structure (SMILES) | IC50 [1] [µM] | PD2 [2] | PD2 [3] | PD2 [4] | PD2 [5] | PD2 [6] |
| --- | --- | --- | --- | --- | --- | --- |
| CC(=O)OC(CSc1ccccc1)CN1CCN(CCCC(c2ccc(F)cc2)c2ccc(F)cc2)CC1 (centres undefined) | 20 | 6.55 | – | – | – | – |
| COC(CSc1ccccc1)CN1CCN(CCCC(c2ccc(F)cc2)c2ccc(F)cc2)CC1 (centres undefined) | 20 | 6.69 | – | – | – | – |
| Cc1c(C)c2c(c(C)c1O)CC[C@@](C)(CCC[C@H](C)CCC[C@H](C)CCCC(C)C)O2 [ALPHA-TOCOPHEROL] | 1.5 | – | – | – | – | – |
| Fc1ccc(C(c2ccc(F)cc2)N2CCN(C/C=C/c3ccccc3)CC2)cc1 [FLUNARIZINE] | – | 5.98 | – | – | – | – |
| CC(=O)OC(CNc1ccccc1)CN1CCN(CCCC(c2ccc(F)cc2)c2ccc(F)cc2)CC1 (centres undefined) | 13 | 6.38 | – | – | – | – |
| OC(CNc1ccccc1)CN1CCN(CCCC(c2ccc(F)cc2)c2ccc(F)cc2)CC1 (centres undefined) | 6.5 | 6.7 | 6.1 | 6.76 | 6.27 | 6.32 |
